{"source": "patent US6821541B2", "about": "“Anaerobic tea steeper and method of use” (priority 2002, dated 2004)", "origin": "cited, not measured here", "key": {"[1]": {"system": "canine lymphoma (lymphosarcoma)", "conditions": "dogs with lymphoma"}, "[2]": {"conditions": "for stability in tea drinks: room temperature"}}, "note": "Like-named read-outs stand apart in the source and are kept apart here.", "data": [{"compound": "COc1cccc2c1C(=O)c1c(O)c3c(c(O)c1C2=O)C[C@@](O)(C(=O)CO)C[C@@H]3O[C@H]1C[C@H](N)[C@H](O)[C@H](C)O1", "note": "[Doxorubicin]", "values": [{"measurement": "duration of remission", "setting": "[1]; drug alone, guideline value", "value": "18-29 weeks"}]}, {"compound": "Oc1cc(O)c2c(c1)O[C@H](c1ccc(O)c(O)c1)[C@H](O)C2", "note": "[EC, (−) epicatechin]", "values": [{"measurement": "stability in tea drinks", "setting": "[2]", "value": "generally stable"}]}, {"compound": "O=C(O[C@@H]1Cc2c(O)cc(O)cc2O[C@@H]1c1ccc(O)c(O)c1)c1cc(O)c(O)c(O)c1", "note": "[ECG, (−) epicatechin gallate]", "values": [{"measurement": "stability in tea drinks", "setting": "[2]", "value": "generally stable"}]}, {"compound": "C[C@]12C=CC(=O)C=C1CC[C@@H]1[C@@H]2C(=O)C[C@@]2(C)[C@H]1CC[C@]2(O)C(=O)CO", "note": "[Prednisone]", "values": [{"measurement": "duration of remission", "setting": "[1]; guideline values", "value": "about 30 days"}]}, {"compound": "(−) epigallocatechin gallate [EGCG]", "values": [{"measurement": "stability in aqueous solution", "setting": "[2]; 4° C., 24 hours, pH 3-9", "value": "stable"}, {"measurement": "level remaining after degradation", "setting": "[2]; 24 hours at 50° C. and pH 5", "value": "below 80 % of the initial concentration"}, {"measurement": "stability in tea drinks", "setting": "[2]", "value": "generally stable"}]}]}
